Earlier results in patent publication US5891465A, “Delivery of biologically active material in a liposomal formulation for administration into the mouth” (BioZone Laboratories, Inc., priority 1996, dated 1999).

Columns and labels:
[1] = tablet for absorption through the buccal mucosa
[2] = tablets under the tongue

Row | SMILES | androgenic activity relative to oral tablets [1] | onset [2]
1 | C[C@]12CCC(=O)C=C1CC[C@@H]1[C@@H]2CC[C@@]2(C)[C@H]1CC[C@]2(C)O [methyltestosterone] | twice the androgenic activity | –
2 | O=[N+]([O-])OCC(CO[N+](=O)[O-])O[N+](=O)[O-] [nitroglycerin] | – | rapid onset
